The source of these data is patent US12180228B2 (priority 2019, dated 2024).

The subject of data set [1] is HeLa (cervical carcinoma). Particulars: for IC50: read-out: Cytotoxicity IC50, HeLa, 72 h of compound treatment, Cell Titer-Glo (ATP levels), error is standard deviation of the mean, n ≥ 2. The protocol:
(§1) Cells were grown in media supplemented with fetal bovine serum (FBS) and antibiotics (100 μg/mL penicillin and 100 U/mL streptomycin).
(§2) Cells were plated at 250 cells/well into duplicate assay plates in 50 μL media into 384-well white, opaque, tissue-culture treated plates and allowed to adhere overnight at 37° C./5% CO2. Compounds were solubilized in DMSO as 1000× stocks and […] was pin-transferred to cells (V&P pin tool mounted on Tecan Freedom Evo MCA96). Compounds were tested in 10-pt, 2-fold dilution with concentrations tested between 1 nM-20 μM for most compounds, except where indicated. DMSO (32 wells of 384-wells) was used as vehicle control. After 72 hours of incubation at 37° C./5% CO2, 10 μL Cell Titer-Glo (Promega) was added to each well and plates were incubated at room temperature for 10 minutes before the luminescence was read on a Tecan M1000 plate reader. Cell Titer-Glo measures ATP levels of cells as a surrogate for cell viability. All compound-treated wells was normalized to the DMSO control averages and expressed as a % of DMSO viability. IC50 values were determined from the dose curves using Spotfire (Perkin Elmer).

Data set [2] relates to DU-145 (prostate carcinoma). Conditions: for IC50: read-out: Cytotoxicity IC50, DU-145, 72 h of compound treatment, Cell Titer-Glo (ATP levels), error is standard deviation of the mean, n ≥ 2. The protocol: as §1, §2
(In general: Cellular ATP, detected with luciferase, serves as a proxy for viable cell number.)

Data set [3] has as its system A549 (alveolar adenocarcinoma). Conditions: for IC50: read-out: Cytotoxicity IC50, A549, 72 h of compound treatment, Cell Titer-Glo (ATP levels), error is standard deviation of the mean, n ≥ 2. The method, then: as §1, §2
The subject of data set [4] is Toledo cell lines (diffuse large cell lymphoma; non-Hodgkin's B cell lymphoma). Kind of data set: cells. Format: cell-based. Conditions: Homo sapiens, 72 hours, CellTiter-Glo. The protocol:
(§3) Cells were grown in RPMI-1640+10% FBS+Pen/Strep and all are suspension cell lines. Each were plated at 250 cells per well in 50 μL of media in a 384 well plate and 50 nL of compounds was added via pin-tool (same as our usual procedure). Compounds were tested at 20 μM starting assay concentration in 20-pt, 2-fold dose in duplicate on the same assay plate. Cells were incubated with compound for 72 hours and viability was read out with CellTiter-Glo.

Data set [5] relates to Jurkat cell lines (acute T cell leukemia). Kind of data set: cells. Format: cell-based. Conditions: Homo sapiens, 72 hours, CellTiter-Glo. The method, then:
as §3

For data set [6], the system named is K-562 cell lines (chronic myelogenous leukemia (CML)). As to the kind of experiment: cells. Particulars: Homo sapiens, K562; 72 hours, CellTiter-Glo. Format: cell-based. The method, then: as §3
In data set [7] the test system is five human cancer cell lines (HeLa, A549, MCF7, HCT116, DU-145). Particulars: for cytotoxic activity relative to parent ETP (in words): same five cell lines. The method, then: Cells were grown in media supplemented with fetal bovine serum (FBS) and antibiotics (100 μg/mL penicillin and 100 U/mL streptomycin). Specifically, experiments were performed using the following cell lines and media compositions: HeLa (cervical adenocarcimona) and A549 (lung carcinoma) were grown in RPMI-1640+10% FBS; HCT-116 (colorectal carcinoma) was grown in DMEM+10% FBS; DU-145 (prostate carcinoma) and MCF7 (breast adenocarcinoma) were grown in EMEM+10% FBS. Cells were incubated at 37° C. in a 5% CO2, 95% humidity atmosphere.
as §2
To evaluate the model and functionalized ETP probes as anticancer agents, fifteen derivatives were tested in culture against a panel of five human cancer cell lines (Table 1).

The test system of data set [8] is MCF7 (breast adenocarcinoma). Conditions: read-out: Cytotoxicity IC50, MCF7; 72 h of compound treatment, Cell Titer-Glo (ATP levels); error is standard deviation of the mean, n ≥ 2. The method, then: as §1, §2
Data set [9] deals with HCT116 (colorectal carcinoma). Conditions: read-out: Cytotoxicity IC50, HCT116; 72 h of compound treatment, Cell Titer-Glo (ATP levels); error is standard deviation of the mean, n ≥ 2. The method, then: as §1, §2
Data set [10] in a line: Chemical stability of epidisulfides, in situ 1H NMR monitoring. Particulars: triethylamine, 16 hours in deuteroacetonitrile. Format: physicochemical. The protocol: In the absence of base, 98% of epidisulfide (+)-8 remained after 20 hours in deuterochloroform.
Monitoring in situ by ^1H NMR spectroscopy, 99% remaining starting material in the presence of triethylamine after 16 hours in deuteroacetonitrile was observed.

The conditions of data set [11]: D2O and CD3CN, addition of glutathione; minutes with base or days without. The method, then: The first study involved thiol-disulfide exchange of ETPs in organic solvents using a surrogate thiol, and then transitioned to more biologically informative aqueous conditions involving glutathione (Scheme 9).
To investigate this, aliquots of the reaction were diluted starting with epidisulfide (+)-42 (“from ETP”) in CDCl3 to analyze the composition versus an internal standard over a period of 100 h.

The term IC50 denotes the concentration that gives 50% inhibition.

Consider `CN1C(=O)[C@@]23C[C@]4(c5ccc(OCCCN=[N+]=[N-])cc5)c5ccccc5N(S(=O)(=O)c5ccccc5)[C@@H]4N2C(=O)[C@]1(C)SS3` [(+)-9d, Epidithiodiketopiperazine Azide], for which the “fold decrease in activity compared to model ETP (+)-42, HeLa” value in [1] is 4.3 fold. Further, in data set [2], the “fold decrease in activity compared to model ETP (+)-42, DU-145” value is listed as 8.6 fold. Further, the “fold decrease in activity compared to model ETP (+)-42, A549” value in data set [3] is given as 2.7 fold. For the same compound, the IC50 came to 1810 nM in data set [4], 419 nM in [5] and 1280 nM in data set [6].
On to `COc1ccc([C@]23C[C@@]45SS[C@@](C)(C(=O)N4[C@H]2N(S(=O)(=O)c2ccccc2)c2ccccc23)N(C)C5=O)cc1` [(+)-42, Epidithiodiketopiperazine], for which the IC50 was 32 to 374 nM in data set [7] (read-out: activity (IC50 range) against the five cell lines, range over HeLa, A549, MCF7, HCT116, DU-145); 32 ± 37 nM in [1]; 81 ± 64 nM in [8]; 36 ± 43 nM in data set [2]; 92 ± 87 nM in data set [3]; 374 ± 83 nM in data set [9]. Also, the remaining starting material in data set [10] stood at 99%.
On to `COc1ccc([C@]23C[C@]4(SSCc5ccc(F)cc5)C(=O)N(C)[C@@](C)(SSCc5ccc(F)cc5)C(=O)N4[C@H]2N(S(=O)(=O)c2ccccc2)c2ccccc23)cc1` [(+)-45b], for which the “cytotoxic activity relative to parent ETP (in words)” value in data set [7] is recorded as “approximately the same activities”.
For the compound `COc1ccc([C@]23C[C@]4(SSCc5ccc(F)cc5)C(=O)N(C)[C@@H](SSCc5ccc(F)cc5)C(=O)N4[C@H]2N(S(=O)(=O)c2ccccc2)c2ccccc23)cc1` [(−)-45a], the “cytotoxic activity relative to parent ETP (in words)” value in data set [7] is “approximately the same activities”.
For `COc1ccc([C@]23C[C@]4(SSC[C@H](NC(=O)CC[C@H](N)C(=O)O)C(=O)NCC(=O)O)C(=O)N(C)[C@@](C)(SSC[C@H](NC(=O)CC[C@H](N)C(=O)O)C(=O)NCC(=O)O)C(=O)N4[C@H]2N(S(=O)(=O)c2ccccc2)c2ccccc23)cc1` [Compound 46, Bis(L-glutathione)disulfide], the “cytotoxic activity relative to parent ETP (in words)” value in [7] is given as “significantly less active”. The IC50 in [1] worked out at 508 ± 75 nM; in data set [8], 500 ± 152 nM; in data set [2] it was 580 ± 216 nM; in data set [3] it was 910 ± 324 nM; in data set [9] it was 1100 ± 540 nM. Moreover, the “reversion of bisdisulfide to ETP (+)-42 (in words)” value in data set [11] is “quantitative reversion”.
